Reference: US11661427B2, “Tetrazole derivatives as TRPA1 inhibitors” (Boehringer Ingelheim International GmbH, priority 2020, dated 2023)

Columns and labels:
human TRPA1 ion channel = human TRPA1 ion channel (Homo sapiens (Human), UniProt O75762); experiment: Assay A: TRPA1 assay (FLIPR calcium assay, AITC agonism, HEK293 cells over-expressing human TRPA1); assay type: cell-based; settings: AITC 10 μM, FLIPRtetra, AUC after AITC addition, read-out: hTRPA1 IC50
Method: A human HEK293 cell line over-expressing the human TRPA1 ion channel (Perkin Elmer, Product No. AX-004-PCL) is used as a test system for compound efficacy and potency. Compound activity is determined by measuring the effect of compounds on intracellular calcium concentration induced by AITC (Allylisothiocyanat) agonism in a FLIPRtetra system (Molecular Devices).
Cells are grown in culture medium (MEM/EBSS medium with 10% FCS and 0.4 mg/ML Geneticin). […] For sub-culturing cells are detached from flasks by Versene. At the day before the assay, cells are detached, washed twice with medium (MEM/EBSS medium with 10% FCS) and 20000 cells in 20 μl/well are seeded to Poly D-Lysin biocoated 384-well plates (black, clear bottom, Cat. 356697) from Corning. Plates are incubated for 24 hours at 37° C./5% CO2 before use in the assay.
The test compounds are dissolved in 100% DMSO at a concentration of 10 mM and in a first step diluted in DMSO to a concentration of 5 mM, followed by serial dilution steps in 100% DMSO. Dilution factor and number of dilution steps may vary according to needs. Typically 8 different concentrations by 1:5 dilutions are prepared, further intermediate dilutions (1:20) of the substances are carried out with HBSS/HEPES buffer (1×HEPES, Cat. 14065 from Gibco, 20 mM HEPES, Cat. 83264 from SIGMA, 0.1% BSA Cat. 11926 from Invitrogen, pH 7.4
At the assay day cells are washed 3× with assay puffer, 20 μL buffer remaining in the wells after washing. 10 μL Ca6 kit (Cat. R8191 MolecularDevices) loading buffer in HBSS/HEPES is added to the cells and the plates are incubated with lid for 120 minutes at 37°/5% CO2. 10 μL of compound or controls in HBSS/HEPES buffer/5% DMSO from the intermediate dilution plate are carefully added to the wells. […] Finally 10 μL of the agonist AITC 50 μM dissolved in HBSS/HEPES buffer/0.05% DMSO (final concentration 10 μM) is added to the wells followed by an additional read on the FLIPRtetra device for 10 minutes. The area under the signal curve (AUC) after AITC addition is used for IC50/% inhibition calculations
Each assay microtiter plate contains wells with vehicle (1% DMSO) controls instead of compound as controls for AITC induced luminescence (100% CTL; high controls) and wells with vehicle controls without AITC as controls for non-specific changes in luminescence (0% CTL; low controls).
The analysis of the data is performed by the calculation of the area under signal curve of the individual wells. Based on this values the % value for the measurement of each substance concentration is calculated (AUC(sample)−AUC(low))*100/(AUC(high)−AUC(low)) using MegaLab software (in house development). The IC50 values are calculated from the % control values using MegaLab software. Calculation: [y=(a−d)/(1+(x/c)^B)+d], a=low value, d=high value; x=conc M; c=IC50 M; b=hill; y=% ctrl

[1] = Assay B: Microsomal clearance; assay type: in vitro ADME; settings: pooled liver microsomes, 1 μM test compound, 37° C.; Tables 5 and 6 of the same assay are headed human LM [% Qh]
Method: Evaluation of Microsomal Clearance Assay B: Microsomal Clearance:
The metabolic degradation of the test compound is assayed at 37° C. with pooled liver microsomes. The final incubation volume of 100 μl per time point contains TRIS buffer pH 7.6 at RT (0.1 M), magnesium chloride (5 mM), microsomal protein (1 mg/ml) and the test compound at a final concentration of 1 μM.
Following a short preincubation period at 37° C., the reactions are initiated by addition of beta-nicotinamide adenine dinucleotide phosphate, reduced form (NADPH, 1 mM) and terminated by transferring an aliquot into solvent after different time points (0, 5, 15, 30, 60 min). Additionally, the NADPH-independent degradation is monitored in incubations without NADPH, terminated at the last time point. The [%] remaining test compound after NADPH independent incubation is reflected by the parameter c(control) (metabolic stability). The quenched incubations are pelleted by centrifugation (10000 g, 5 min).
An aliquot of the supernatant is assayed by LC-MS/MS for the amount of parent compound. The half-life (t1/2 INVITRO) is determined by the slope of the semilogarithmic plot of the concentration-time profile.

[2] = Assay C: Hepatocyte clearance; assay type: in vitro ADME, human; settings: hepatocyte suspension, 5% species serum, 1 μM test compound, six hours
Method: Evaluation of Hepatocyte Clearance Assay C: Hepatocyte Clearance
The metabolic degradation of the test compound is assayed in a hepatocyte suspension. Hepatocytes (cryopreserved) are incubated in Dulbecco's modified eagle medium (supplemented with 3.5 μg glucagon/500 mL, 2.5 mg insulin/500 mL and 3.75 mg/500 mL hydrocortison) containing 5% species serum.
Following a 30 min preincubation in an incubator (37° C., 10% CO2) 5 μl of test compound solution (80 μM; from 2 mM in DMSO stock solution diluted 1:25 with medium) are added into 395 μl hepatocyte suspension (cell density in the range 0.25-5 Mio cells/mL depending on the species, typically 1 Mio cells/mL; final concentration of test compound 1 μM, final DMSO concentration 0.05%).
The cells are incubated for six hours (incubator, orbital shaker) and samples (25 μl) are taken at 0, 0.5, 1, 2, 4 and 6 hours. Samples are transferred into acetonitrile and pelleted by centrifugation (5 min). The supernatant is transferred to a new 96-deepwell plate, evaporated under nitrogen and resuspended.
Decline of parent compound is analyzed by HPLC-MS/MS
CLint is calculated as follows CL_[…]=Dose/AUC=(C0/CD)/(AUD+clast/k)×1000/60. C0: initial concentration in the incubation [μM], CD: cell density of vital cells [10e6 cells/mL], AUD: area under the data [μM×h], clast: concentration of last data point [μM], k: slope of the regression line for parent decline [h−1].
The calculated in vitro hepatic intrinsic clearance can be scaled up to the intrinsic in vivo hepatic Clearance and used to predict hepatic in vivo blood clearance (CL) by the use of a liver model (well stirred model).

human TRPA1 ion channel, sequence (O75762 whole entry): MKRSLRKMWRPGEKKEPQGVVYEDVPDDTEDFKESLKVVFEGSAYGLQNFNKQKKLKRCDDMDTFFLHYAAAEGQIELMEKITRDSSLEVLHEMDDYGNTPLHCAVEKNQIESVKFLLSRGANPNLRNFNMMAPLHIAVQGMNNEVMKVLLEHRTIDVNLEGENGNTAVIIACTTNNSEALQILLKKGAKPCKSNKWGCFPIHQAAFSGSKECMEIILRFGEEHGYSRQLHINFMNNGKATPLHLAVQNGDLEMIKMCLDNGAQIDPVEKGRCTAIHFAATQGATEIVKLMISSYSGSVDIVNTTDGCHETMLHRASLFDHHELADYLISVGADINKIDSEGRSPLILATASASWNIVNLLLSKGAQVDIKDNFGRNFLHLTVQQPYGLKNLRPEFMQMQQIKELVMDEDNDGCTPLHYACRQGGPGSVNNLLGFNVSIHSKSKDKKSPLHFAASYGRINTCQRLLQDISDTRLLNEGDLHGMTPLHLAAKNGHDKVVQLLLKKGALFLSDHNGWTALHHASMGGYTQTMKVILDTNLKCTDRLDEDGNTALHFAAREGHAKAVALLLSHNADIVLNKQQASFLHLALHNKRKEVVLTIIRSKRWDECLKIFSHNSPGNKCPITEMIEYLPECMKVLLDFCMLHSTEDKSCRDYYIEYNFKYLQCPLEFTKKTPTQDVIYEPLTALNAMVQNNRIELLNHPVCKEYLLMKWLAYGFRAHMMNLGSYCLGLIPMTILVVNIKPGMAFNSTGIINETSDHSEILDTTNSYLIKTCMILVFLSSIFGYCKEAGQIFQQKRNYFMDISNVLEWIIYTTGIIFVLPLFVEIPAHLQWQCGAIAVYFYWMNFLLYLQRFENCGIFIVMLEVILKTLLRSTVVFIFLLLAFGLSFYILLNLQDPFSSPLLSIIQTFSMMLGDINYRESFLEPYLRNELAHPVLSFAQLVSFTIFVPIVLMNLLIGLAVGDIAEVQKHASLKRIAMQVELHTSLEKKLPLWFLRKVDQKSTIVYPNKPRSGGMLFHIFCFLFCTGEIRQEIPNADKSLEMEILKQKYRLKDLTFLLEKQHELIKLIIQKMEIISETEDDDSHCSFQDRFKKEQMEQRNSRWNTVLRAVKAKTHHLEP

Row | SMILES | IC50 (human TRPA1 ion channel) | Assay B result (column head not printed in Table 4) [1] | human Hepatocytes [2]
1 | Cc1oc2ncn(Cc3nnn(C[C@H](O)c4cc5ccccc5s4)n3)c(=O)c2c1C(N)=O [Example 5] | 0.011 µM | < 23% | 23 % Qh
2 | Cc1c(C(N)=O)oc2ncn(Cc3nnn(C[C@H](O)c4ccc(Cl)s4)n3)c(=O)c12 [Example 3] | 0.01 µM | < 23% | 5 % Qh
3 | Cc1oc2ncn(Cc3nnn(C[C@H](O)c4ccc(Cl)cc4)n3)c(=O)c2c1C(N)=O [Example 9] | 0.023 µM | < 23% | 16 % Qh
4 | Cc1oc2ncn(Cc3nnn(C[C@H](O)c4ccc(Br)cc4)n3)c(=O)c2c1C(N)=O [Example 12] | 0.029 µM | < 23% | 16 % Qh
5 | Cc1oc2ncn(Cc3nnn(C[C@H](O)c4cc5cccc(F)c5o4)n3)c(=O)c2c1C(N)=O [Example 13] | 0.049 µM | 26% | 22 % Qh
6 | Cc1c(C(N)=O)oc2ncn(Cc3nnn(C[C@H](O)c4cc5ccccc5s4)n3)c(=O)c12 [Example 2] | 0.01 µM | < 23% | 23 % Qh
7 | Cc1c(C(N)=O)oc2ncn(Cc3nnn(C[C@H](O)c4cc5cc(Cl)ccc5o4)n3)c(=O)c12 [Example 6] | 0.013 µM | < 23% | 24 % Qh
8 | Cc1oc2ncn(Cc3nnn(C[C@H](O)c4cc5ccc(F)cc5s4)n3)c(=O)c2c1C(N)=O [Example 4] | 0.01 µM | < 23% | 30 % Qh
9 | Cc1oc2ncn(Cc3nnn(C[C@H](O)c4cc5cc(F)ccc5o4)n3)c(=O)c2c1C(N)=O [Example 15] | 0.018 µM | < 23% | 21 % Qh
10 | Cc1oc2ncn(Cc3nnn(C[C@H](O)c4ccc(Cl)s4)n3)c(=O)c2c1C(N)=O [Example 7] | 0.02 µM | < 23% | 15 % Qh
11 | Cc1ccc([C@@H](O)Cn2nnc(Cn3cnc4oc(C(N)=O)c(C)c4c3=O)n2)cc1 [Example 8] | 0.021 µM | < 23% | 14 % Qh
12 | Cc1ccc([C@@H](O)Cn2nnc(Cn3cnc4oc(C)c(C(N)=O)c4c3=O)n2)cc1 [Example 1, 3-({2-[(2R)-2-hydroxy-2-(4-methylphenyl)ethyl]-2H-1,2,3,4-tetrazol-5-yl}methyl)-6-methyl-4-oxo-3H,4H-furo[2,3-d]pyrimidine-5-carboxamide] | 0.024 µM | < 23% | 4 % Qh
13 | Cc1oc2ncn(Cc3nnn(C[C@H](O)c4cc5cc(Cl)ccc5o4)n3)c(=O)c2c1C(N)=O [Example 14] | 0.012 µM | 42% | 42 % Qh
14 | Cc1oc2ncn(Cc3nnn(C[C@H](O)c4cc5ccccc5o4)n3)c(=O)c2c1C(N)=O [Example 11] | 0.026 µM | < 23% | 8 % Qh
15 | Cc1c(C(N)=O)oc2ncn(Cc3nnn(C[C@H](O)c4ccc(Cl)cc4)n3)c(=O)c12 [Example 10] | 0.023 µM | < 23% | <4 % Qh
